Laboratory results as given in article PMC12518634, “The noncanonical function of liver-type phosphofructokinase potentiates the efficacy of HDAC inhibitors in cancer” (Signal Transduction and Targeted Therapy, 2025).
Like-named read-outs stand apart in the source and are kept apart here.

Tests used:
1405R3 = assay: High-throughput drug screen, CellTiter-Glo viability, 72 h; type: cell-based, human; set-up: AUC: scale not given here; details: 1405R3 DSRT analysis; for AUC: area under the dose-response curve; for MIN: lower asymptote of fitted dose-response curve; for SLOPE: slope of fitted dose-response curve; for EC50: fitted dose-response curve, Min.Conc.tested 1, Max.Conc.tested 10000, CellTiter-Glo, 72 h, read-out: EC50
Experimental: (§1) The cells were seeded and incubated with a gradient of concentrations of drugs for 72 h, after which the cell viability was assessed (Supplementary Fig. 1a). The drug library primarily comprises epigenetic drugs, including HDAC inhibitors, DNA methyltransferase inhibitors, and histone demethylase inhibitors, as well as conventional chemotherapies and kinase inhibitors (Supplementary Fig. 1b and Supplementary Table 1). […] To identify novel therapeutics against CCA, we conducted a high-throughput screen employing PerkinElmer’s integrated robotic Explorer G3 workstations. […] Following dilution to five specified concentrations, drugs were dispensed into 96-well plates in the sequence detailed in Supplementary Fig. 1a. The CCA cell lines were subsequently plated in 384-well plates at a density of 3000 cells per well in a 20 μL total volume. After a 24-h incubation, the compounds were added to the wells and incubated for 72 h. We then quantified cell viability via the CellTiter-Glo luminescent assay according to the manufacturer’s protocol. Signal detection was carried out on a Synergy2 plate reader operated by Gen5 software (BioTek). For data processing, the raw luminescence data were processed through the Breeze pipeline for curve fitting, yielding quality control metrics (e.g., Z-factors) and drug response parameters (AUC and DSS), as adapted from previous work.[54] Drug responses were evaluated on the basis of the drug sensitivity score (DSS), and a cutoff of ≥10 was used to define efficacy. The complete drug library and screening dataset are available in Supplementary Tables 1-3.
(§2) Supplementary Fig. 1. A high-throughput drug screen to identify drugs targeting CCA. a Schematic representation of the drug screening protocol. […] Each drug was tested at five different concentrations (10, 1, 0.1, 0.01, and 0.001 μM), and each treatment was replicated twice. b Classification of drugs used for screening.

783C-6 = assay: as above; type: cell-based, human; set-up: AUC: scale not given here; details: for DSS: DSS calculated from the dose-response curve; for MIN: MIN of the fitted dose-response curve; for AUC: area under the dose-response curve; for SLOPE: slope of the fitted dose-response curve; for EC50: 72 h, read-out: EC50
Experimental: as §1, §2

[1] = 783C-6 DSRT analysis, CellTiter-Glo viability, fitted dose-response curve, Min.Conc.tested 1, Max.Conc.tested 10000

| Compound | DSS (1405R3) | AUC (1405R3) | MIN (1405R3) | SLOPE (1405R3) | DSS (783C-6; 783C-6 DSRT analysis) | MIN (783C-6; 783C-6 DSRT analysis) | AUC (783C-6; 783C-6 DSRT analysis) | SLOPE (783C-6; 783C-6 DSRT analysis) | EC50 (1405R3) | EC50 (783C-6; [1]) | EC50 (1405R3; Homo sapiens) | EC50 (783C-6; Homo sapiens) |
| --- | --- | --- | --- | --- | --- | --- | --- | --- | --- | --- | --- | --- |
| c1cncc(-c2cn[nH]n2)c1 [3-TYP] | 0 | 4.8 | 96.9 | -0.1 | 0 | 94.7 | 2.5 | -0.6 |  |  |  |  |
| Cn1cc(-c2ccc(S(=O)(=O)n3ccc(/C=C/C(=O)Nc4ccccc4N)c3)cc2)cn1 [4SC-202] | 3.9 | 35.8 | 57.9 | -2.3 | 6.7 | 48.6 | 57 | -2.5 | 1.42 µM | 0.78 µM |  |  |
| O=C(O[C@@H]1Cc2c(O)cc(O)cc2O[C@@H]1c1cc(O)c(O)c(O)c1)c1cc(O)c(O)c(O)c1 [(-)-Epigallocatechin Gallate] | 0 | 0.7 | 97.6 |  | 0 | 75.7 | 22.9 |  |  |  |  |  |
| O=C(NO)c1cnc(NC2(c3ccccc3)CC2)nc1 [ACY-738] | 5 | 44.6 | 25.2 |  | 5.2 | 24.1 | 46.6 |  |  |  | 2.57 µM | 2.46 µM |
| O=C(NO)c1cnc(NC2(c3cccc(F)c3)CCCCC2)nc1 [ACY-775] | 0 | 0.4 | 98.9 | -0.9 | 0 | 97.3 | 2.4 | -0.3 |  |  |  |  |
| Cc1csc(-c2nnc(Nc3ccc(Oc4ncccc4-c4ccnc(N)n4)cc3)c3ccccc23)c1 [AMG-900] | 0.2 | 29 | 82.3 |  | 4.1 | 63.4 | 52.5 |  |  |  |  | 0.483 µM |
| N[C@@H]1CCCN(c2c(/C=C3\SC(=O)NC3=O)cccc2-c2ccccc2)C1 [AZD1208] | 0 | 16 | 87 | -0.2 | 0 | 87.6 | 19.2 | -0.1 |  |  |  |  |
| CN(C)Cc1c(C(=O)NCCOc2ccc(C(=O)NO)cc2)oc2ccccc12 [Abexinostat] | 6 | 53 | 14.8 |  | 5.3 | 6.1 | 48.2 |  |  |  | 2.42 µM | 3.13 µM |
| COc1cc(Nc2ncc3c(n2)-c2ccc(Cl)cc2C(c2c(F)cccc2OC)=NC3)ccc1C(=O)O [Alisertib] | 0.1 | 15.4 | 89 |  | 3.7 | 73.6 | 52.1 |  |  |  |  | 0.108 µM |
| CCN1CCN(C(=O)Cc2ccc(Nc3ncc(F)c(Nc4ccc(C(=O)Nc5ccccc5Cl)cc4)n3)cc2)CC1 [Aurora A Inhibitor I] | 3 | 28 | 50 | -2.5 | 4.6 | 32 | 41.2 | -2.5 | 2.81 µM | 2.51 µM |  |  |
| CNC(=O)c1ccccc1Sc1ccc2c(/C=C/c3ccccn3)n[nH]c2c1 [Axitinib] | 0 | 6.8 | 91.1 |  | 0 | 90.6 | 2.8 |  |  |  |  |  |
| Nc1ccccc1NC(=O)c1cnccn1 [BG45] | 0.1 | 36.3 | 83.6 | -0.1 | 2.2 | 83.6 | 49 | -0.3 |  |  |  |  |
| CCN1CCN(c2ccc(Nc3cc(N(C)C(=O)Nc4c(Cl)c(OC)cc(OC)c4Cl)ncn3)cc2)CC1 [BGJ398] | 5.5 | 50.1 | 7.2 |  | 8 | 7.1 | 70 |  |  |  | 2.94 µM | 1.77 µM |
| CC[C@@H]1C(=O)N(C)c2cnc(Nc3ccc(C(=O)NC4CCN(C)CC4)cc3OC)nc2N1C1CCCC1 [BI 2536] | 11.6 | 98.4 | 6.7 |  | 8.8 | 52.4 | 90 |  |  |  | 0.884 µM | 0.137 µM |
| COc1cc2nc(N3CCCN(C)CC3)nc(NC3CCN(Cc4ccccc4)CC3)c2cc1OC [BIX 01294] | 4.6 | 42.6 | 12.3 |  | 4.7 | 28 | 42.4 |  |  |  | 3.35 µM | 2.61 µM |
| Nc1ccccc1NC(=O)CCCCCCC(=O)Nc1ccccc1 [BML-210] | 0 | 5.7 | 96.1 | -0.1 | 0 | 97 | 3.9 | -2.5 |  |  |  |  |
| CC(=O)Nc1ccc(C(=O)Nc2ccc(F)cc2N)cc1 [BRD3308] | 0 | 12.9 | 91.7 | -0.1 | 0 | 86.9 | 3.9 | -1 |  |  |  |  |
| O=C(NO)c1cccc(C(=O)NCCc2ccccc2)c1 [BRD73954] | 0 | 13.2 | 91.5 | -0.1 | 0 | 90.9 | 14 | -0.1 |  |  |  |  |
| CCN(CCCOc1ccc2c(Nc3cc(CC(=O)Nc4cccc(F)c4)n[nH]3)ncnc2c1)CCOP(=O)(O)O [Barasertib] | 0 | 0.1 | 100 |  | 0 | 91.7 | 11.5 |  |  |  |  |  |
| O=C(O)CCCc1ccccc1 [Benzenebutyric acid] | 0 | 2.3 | 94.7 | -0.7 | 0 | 96.8 | 1.4 | -0.7 |  |  |  |  |
| O=S(=O)(Cl)c1ccc(-c2ccccc2)cc1 [Biphenyl-4-sulfonyl chloride] | 0 | 6.3 | 94 | -0.2 | 0 | 88.2 | 18.3 | -0.1 |  |  |  |  |
| CC(C)(C)OC(=O)Nc1ccc(-c2cc(C(=O)NCCCCCCC(=O)NO)no2)cc1 [CAY10603] | 5 | 45.4 | 20.6 | -2.5 | 4.4 | 30.8 | 39.5 | -2.5 | 2.72 µM | 2.73 µM |  |  |
| COc1cc2c(NC3CCN(C)CC3)cc(-c3ccc(C)o3)nc2cc1OCCCN1CCCC1 [CM272] | 6.8 | 59.8 | 15.5 | -2.5 | 13.1 | 28.5 | 107.8 | -2.5 | 1.98 µM | 0.311 µM |  |  |
| CCS(=O)(=O)N1CCC([C@@H](C)n2c(C)c(C(=O)NCc3c(OC)cc(C)[nH]c3=O)c3ccccc32)CC1 [CPI-169] | 0 | 0.1 | 100 |  | 0 | 97.5 | 1 |  |  |  |  |  |
| Cc1sc2c(c1C)C(c1ccc(Cl)cc1)=N[C@@H](CC(N)=O)c1nnc(C)n1-2 [CPI-203] | 13 | 111.9 | 33.4 | -1.2 | 0 | 93.6 | 3.2 | -0.7 | 0.21 µM |  |  |  |
| COc1cc(C)[nH]c(=O)c1CNC(=O)c1c(C)n([C@H](C)C2CCOCC2)c2ccccc12 [CPI-360] | 0 | 11.9 | 92.3 |  | 0.1 | 84.8 | 36.1 |  |  |  |  |  |
| Cc1noc2c1-c1ccccc1C(c1ccc(Cl)cc1)=N[C@H]2CC(N)=O [CPI-0610] | 6.7 | 64.6 | 49.2 |  | 0.7 | 84.7 | 34.4 |  |  |  | 0.566 µM |  |
